In patent publication US20120029187A1, “HALOALKYLSULFONANILIDE DERIVATIVE” (Nissan Chemical Industries, Ltd., priority 2009, published 2012):

Legend:
Assay type in all cases: in vivo
barnyardgrass [1] = experiment: Test Example 1: herbicidal effects in preemergence treatment under submerged conditions; conditions: dose 2.52 g/a
Method in brief: (§1)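 Flooded-paddy preemergence assay; EC diluted with water, surface-applied at weed seeding; doses g/a; rice transplanted at 2.5 leaves; 0–5 mortality score after 3 weeks.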

bulrush [2] = experiment: as above; conditions: dose 2.52 g/a
Method in brief: as §1

ducksalad [3] = experiment: as above; conditions: dose 2.52 g/a
Method in brief: as §1

barnyardgrass [4] = experiment: Test Example 2: herbicidal effects during the vegetation period under submerged conditions; conditions: treatment during the vegetation period under submerged conditions; dose 2.52 g/a
Method in brief: (§2)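 Barnyardgrass, bulrush and ducksalad were co-sown in alluvial soil flooded to 4 cm and grown in a greenhouse at 25 to 30° C. At the 1- or 2-leaf stage, water-diluted emulsifiable concentrates went onto the water surface at set doses (g/a). Herbicidal effect was scored three weeks later on a graded scale.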

bulrush [5] = experiment: as above; conditions: treatment during the vegetation period under submerged conditions; dose 2.52 g/a
Method in brief: as §2

ducksalad [6] = experiment: as above; conditions: treatment during the vegetation period under submerged conditions; dose 2.52 g/a
Method in brief: as §2

Italian ryegrass [7] = experiment: Test Example 3: herbicidal effects in soil treatment; conditions: dose 6.3 g/a
Method in brief: (§3)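 Seeds were sown in sterilized diluvial soil and covered with about 1.5 cm of soil. Compounds, formulated as emulsifiable concentrates and diluted with water, were sprayed evenly over the soil surface at set doses in g/a. Herbicidal effect was scored on a rating scale three weeks later.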

barnyardgrass [8] = experiment: as above; conditions: dose 6.3 g/a
Method in brief: as §3

common chickweed [9] = experiment: as above; conditions: dose 6.3 g/a
Method in brief: as §3

common lambsquater [10] = experiment: as above; conditions: dose 6.3 g/a
Method in brief: as §3

common ragweed [11] = experiment: as above; conditions: dose 6.3 g/a
Method in brief: as §3

giant foxtail [12] = experiment: as above; conditions: dose 6.3 g/a
Method in brief: as §3

large crabgrass [13] = experiment: as above; conditions: dose 6.3 g/a
Method in brief: as §3

redroot pigweed [14] = experiment: as above; conditions: dose 6.3 g/a
Method in brief: as §3

water foxtail [15] = experiment: as above; conditions: dose 6.3 g/a
Method in brief: as §3

wild oat [16] = experiment: as above; conditions: dose 6.3 g/a
Method in brief: as §3

Italian ryegrass [17] = experiment: Test Example 4: herbicidal effect in foliage treatment; conditions: dose 6.3 g/a, three weeks after application
Method in brief: (§4)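 Visual herbicidal scores on a graded scale were recorded three weeks after foliar application. Compounds went on as diluted emulsifiable concentrates at predetermined g/a to plants grown 14 days in a 25 to 30° C greenhouse.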

barnyardgrass [18] = experiment: as above; conditions: dose 6.3 g/a, three weeks after application
Method in brief: as §4

beadstraw = experiment: as above; conditions: dose 6.3 g/a, three weeks after application
Method in brief: as §4

common chickweed [19] = experiment: as above; conditions: dose 6.3 g/a, three weeks after application
Method in brief: as §4

common lambsquater [20] = experiment: as above; conditions: dose 6.3 g/a, three weeks after application
Method in brief: as §4

common ragweed [21] = experiment: as above; conditions: dose 6.3 g/a, three weeks after application
Method in brief: as §4

giant foxtail [22] = experiment: as above; conditions: dose 6.3 g/a, three weeks after application
Method in brief: as §4

large crabgrass [23] = experiment: as above; conditions: dose 6.3 g/a, three weeks after application
Method in brief: as §4

redroot pigweed [24] = experiment: as above; conditions: dose 6.3 g/a, three weeks after application
Method in brief: as §4

water foxtail [25] = experiment: as above; conditions: dose 6.3 g/a, three weeks after application
Method in brief: as §4

wild oat [26] = experiment: as above; conditions: dose 6.3 g/a, three weeks after application
Method in brief: as §4

## CCC(=O)N(c1ccccc1CN1COC(C)CC1=O)S(=O)(=O)C(F)(F)F (stereo not drawn) [II-5]
Barnyardgrass [1]
  A: barnyardgrass, herbicidal effect (evaluation scale 0-5): 5 (mortality of 90% or above (nearly complete death))
Bulrush [2]
  B: bulrush, herbicidal effect (evaluation scale 0-5): 5 (mortality of 90% or above (nearly complete death))
Ducksalad [3]
  C: ducksalad, herbicidal effect (evaluation scale 0-5): 5 (mortality of 90% or above (nearly complete death))
Barnyardgrass [4]
  A: barnyardgrass, herbicidal effect (evaluation scale 0-5): 5 (mortality of 90% or above (nearly complete death))
Bulrush [5]
  B: bulrush, herbicidal effect (evaluation scale 0-5): 5 (mortality of 90% or above (nearly complete death))
Ducksalad [6]
  C: ducksalad, herbicidal effect (evaluation scale 0-5): 5 (mortality of 90% or above (nearly complete death))
Italian ryegrass [7]
  H: Italian ryegrass, herbicidal effect (evaluation scale 0-5): 4 (mortality of at least 70% and less than 90%)
Barnyardgrass [8]
  A: barnyardgrass, herbicidal effect (evaluation scale 0-5): 5 (mortality of 90% or above (nearly complete death))
Common chickweed [9]
  N: common chickweed, herbicidal effect (evaluation scale 0-5): 5 (mortality of 90% or above (nearly complete death))
Common lambsquater [10]
  L: common lambsquater, herbicidal effect (evaluation scale 0-5): 4 (mortality of at least 70% and less than 90%)
Common ragweed [11]
  J: common ragweed, herbicidal effect (evaluation scale 0-5): 4 (mortality of at least 70% and less than 90%)
Giant foxtail [12]
  E: giant foxtail, herbicidal effect (evaluation scale 0-5): 3 (mortality of at least 40% and less than 70%)
Large crabgrass [13]
  D: large crabgrass, herbicidal effect (evaluation scale 0-5): 5 (mortality of 90% or above (nearly complete death))
Redroot pigweed [14]
  K: redroot pigweed, herbicidal effect (evaluation scale 0-5): 1 (mortality of at least 5% and less than 20%)
Water foxtail [15]
  G: water foxtail, herbicidal effect (evaluation scale 0-5): 5 (mortality of 90% or above (nearly complete death))
Wild oat [16]
  F: wild oat, herbicidal effect (evaluation scale 0-5): 0 (mortality of less than 5% (almost ineffective))
Italian ryegrass [17]
  H: Italian ryegrass, herbicidal effect: 3 (mortality of at least 40% and less than 70%)
Barnyardgrass [18]
  A: barnyardgrass, herbicidal effect: 5 (mortality of 90% or above (nearly complete death))
beadstraw
  O: beadstraw, herbicidal effect: 0 (mortality of less than 5% (almost ineffective))
Common chickweed [19]
  N: common chickweed, herbicidal effect: 3 (mortality of at least 40% and less than 70%)
Common lambsquater [20]
  L: common lambsquater, herbicidal effect: 3 (mortality of at least 40% and less than 70%)
Common ragweed [21]
  J: common ragweed, herbicidal effect: 5 (mortality of 90% or above (nearly complete death))
Giant foxtail [22]
  E: giant foxtail, herbicidal effect: 5 (mortality of 90% or above (nearly complete death))
Large crabgrass [23]
  D: large crabgrass, herbicidal effect: 5 (mortality of 90% or above (nearly complete death))
Redroot pigweed [24]
  K: redroot pigweed, herbicidal effect: 0 (mortality of less than 5% (almost ineffective))
Water foxtail [25]
  G: water foxtail, herbicidal effect: 5 (mortality of 90% or above (nearly complete death))
Wild oat [26]
  F: wild oat, herbicidal effect: 0 (mortality of less than 5% (almost ineffective))
